According to PubChem BioAssay (NCI):
Where “and” joins values, the source holds several entries; their conditions need not be identical. Equal entries are not always repeated.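 Briefly, cells in 96-well plates were exposed to five compound concentrations for 48 h, and endpoints were estimated by linear interpolation. GI50 marks 50% less growth. Definition used: TGI = concentration required for complete inhibition of growth.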

Experiments:
Experiment in all cases: NCI tumour cell line growth inhibition, 48 h
ACHN renal = tested on: ACHN renal
SR leukemia = tested on: SR leukemia
A549 NSCLC = tested on: A549 NSCLC
SK-MEL-28 melanoma = tested on: SK-MEL-28 melanoma
NCI-H23 lung = tested on: NCI-H23 lung
SF-539 CNS = tested on: SF-539 CNS
OVCAR-3 ovarian = tested on: OVCAR-3 ovarian
SK-MEL-5 melanoma = tested on: SK-MEL-5 melanoma
MCF7 breast = tested on: MCF7 breast
HL-60(TB) leukemia = tested on: HL-60(TB) leukemia

SMILES | TGI (ACHN renal) [µM] | TGI (SR leukemia) [µM] | TGI (A549 NSCLC) [µM] | TGI (SK-MEL-28 melanoma) [µM] | TGI (NCI-H23 lung) [µM] | TGI (SF-539 CNS) [µM] | TGI (OVCAR-3 ovarian) [µM] | TGI (SK-MEL-5 melanoma) [µM] | TGI (MCF7 breast) [µM] | TGI (HL-60(TB) leukemia) [µM] | GI50 (ACHN renal) | GI50 (SR leukemia) | GI50 (A549 NSCLC) | GI50 (SK-MEL-28 melanoma) | GI50 (NCI-H23 lung) | GI50 (SF-539 CNS) | GI50 (OVCAR-3 ovarian) | GI50 (SK-MEL-5 melanoma) [µM] | GI50 (MCF7 breast) | GI50 (HL-60(TB) leukemia)
COc1cc([C@H]2OC[C@H]3[C@@H]2CO[C@@H]3c2cc(OC)c3c(c2)OCO3)cc(OC)c1OC | > 100 | > 100 | > 100 | > 100 | > 100 | > 100 | > 100 | 48.7 | > 100 | > 100 |  |  |  |  |  |  |  |  |  | 
CS[C@]12C(=O)C[C@@]3(C)[C@@H](CC[C@]3(O)C(=O)CO)[C@@H]1CCC1=CC(=O)CC[C@@]12C | > 100 | > 100 | > 100 | > 100 | > 100 | > 100 | > 100 | > 100 | > 100 | > 100 |  |  |  |  |  |  |  |  |  | 
Cc1ccc(S(=O)(=O)Nc2cccc3[nH]c(C(F)(F)F)nc23)cc1 | > 60.6 | 22 | > 45.8 | > 92.8 | 41.5 | 2.06 | > 100 | 3.98 | > 54.5 | 17.2 | 0.799 µM | 0.383 µM | 0.653 µM | 0.654 µM | 1.66 µM | 0.427 µM | 0.426 µM | 0.429 | 0.389 µM | 0.39 µM
Cc1c2c(nn1C)CSCc1cc(n(C)n1)CSc1cc(c3ccccc3c1)OCCCc1c(C(=O)O)n(C)c3c-2c(Cl)ccc13 | 14 | 7.25 | 15.6 | 12.9 | 10.6 | 7.33 | 6.82 | 5.22 | 11.3 | 0.294 | 4.1 µM | 0.47 µM | 4.38 µM | 3.61 µM | 1.78 µM | 1.53 µM | 2.7 µM | 2.2 | 0.575 µM | 0.0427 µM
O=C(NC[C@H](O)CO)c1ccncc1Nc1ccc(I)cc1F | > 100 | > 100 | > 75.8 |  | > 71.8 | > 100 | > 100 | > 100 | > 100 | > 54.2 | > 2.47 µM and 6.98 µM | > 10 µM and 52.4 µM | 0.694 µM and 1.79 µM | 0.00334 µM and < 0.0104 µM | 0.0913 µM and 0.0707 µM | > 10 µM and 23.2 µM | > 10 µM and 20.1 µM | 7.7 | > 10 µM and 15.5 µM | 0.00228 µM and < 0.01 µM
CCOc1ccccc1N=Nc1c(C)[nH]n(-c2nc(-c3ccccc3)cs2)c1=O | > 100 | > 100 | > 100 | > 100 | > 100 | > 100 | > 100 | > 100 | > 100 | > 100 | 42.3 µM | > 100 µM | 49.9 µM | > 84.9 µM | > 74.1 µM | 27.5 µM | 57.7 µM | 41.6 | 12.4 µM | > 100 µM
COc1c2c(nc3ccccc13)-c1cc3c(c(=O)n1C2)COC(=O)C3(O)CC(=O)N1CCOCC1 (centres undefined) | 14.7 | 17.5 | > 92.4 | > 98.2 | 8.05 | 5.8 | 55 | 23 | > 44.4 | 17.6 |  |  |  |  |  |  |  |  |  | 
Nc1[nH]nc2nc(-c3cccs3)cc(C(F)(F)F)c12 | > 25 | > 25 | > 25 | > 25 | > 25 | > 25 | > 25 | > 25 | > 25 | > 25 | > 21.6 µM | > 13.7 µM | 24.3 µM | > 25 µM | > 25 µM | > 25 µM | > 25 µM | > 25 | > 15.8 µM | > 25 µM
CC#CC(=O)SCCNC(=O)CC | > 10 | > 7.91 | > 10 | > 10 | > 10 | > 10 | > 10 | > 10 | > 10 | > 10 |  |  |  |  |  |  |  |  |  | 
C=C1C(=O)OC2/C=C(/C)C(OC(C)=O)CC(O)/C(C)=C\C(OC(=O)/C(C)=C\C)C12 (centres undefined) | > 100 | > 100 | > 100 | > 100 | > 100 | > 100 | > 100 | > 100 | > 100 | 60.7 |  |  |  |  |  |  |  |  |  | 
C1CN(SSN2CCOCC2)CCO1 | > 100 | > 100 | > 100 | > 100 | 55.9 | 80.7 | 89.2 | > 100 | 64.4 | > 100 | 81 µM | 48.9 µM | 78.6 µM | > 100 µM | 22.5 µM | 24.3 µM | 32.3 µM | 41.1 | 23.3 µM | 32.2 µM
